The values below are quoted from earlier work in publication PMC6343925, “Cholesterol re-organisation and lipid de-packing by arginine-rich cell penetrating peptides: Role in membrane translocation” (PLoS ONE, 2019).

The conditions of the data set: membranes contained PG; same experimental approach.

No end group written: not given here.

As for `N=C(N)NCCC[C@H](NC(=O)[C@H](CCCNC(=N)N)NC(=O)[C@H](CCCNC(=N)N)NC(=O)[C@H](CCCNC(=N)N)NC(=O)[C@H](CCCNC(=N)N)NC(=O)[C@H](CCCNC(=N)N)NC(=O)[C@H](CCCNC(=N)N)NC(=O)[C@H](CCCNC(=N)N)NC(=O)[C@@H](N)CCCNC(=N)N)C(N)=O` [R9, Nona-arginine], the “translocation into LUVs” value was “able to translocate”. As for RRWWRRWRR-NH2 [RW9], the “translocation into LUVs” value is given as “able to translocate”.
